Among the data in patent publication US20240317712A1, “[…] DERIVATIVES AS INHIBITORS OF […]-PEPTIDE CYCLOTRANSFERASE AND […]-PEPTIDE CYCLOTRANSFERASE LIKE PROTEIN” (Boehringer Ingelheim International GmbH, priority 2023, published 2024) are IC50, efflux ratio and Papp A→B values, retold here.

T2 sequence (Q16769 29-361): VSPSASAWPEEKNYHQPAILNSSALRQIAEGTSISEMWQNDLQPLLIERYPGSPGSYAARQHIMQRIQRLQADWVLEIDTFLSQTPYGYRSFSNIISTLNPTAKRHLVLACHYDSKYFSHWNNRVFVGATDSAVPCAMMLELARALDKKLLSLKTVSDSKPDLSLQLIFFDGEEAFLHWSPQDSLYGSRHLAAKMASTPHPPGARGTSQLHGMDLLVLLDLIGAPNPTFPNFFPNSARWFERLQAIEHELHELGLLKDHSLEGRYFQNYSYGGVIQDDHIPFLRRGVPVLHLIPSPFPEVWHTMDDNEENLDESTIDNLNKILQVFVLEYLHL

In the first data set the test system is SIRPα signalling induced by A549 cells. The data set can be described thus: Assay B: SIRPα signalling assay using A549 cells. It counts as cell-based. The conditions noted are these: Homo sapiens, 48 h compound incubation, Jurkat PathHunter SIRPaV1 reporter cells, read-out: Inhibition of SIRPα signalling induced by A549 cells: IC50. The procedure: (§1) Two cell types are independently used: the Raji cell line (lymphoblast-like human cell line derived from B lymphocytes from a Burkitt's lymphoma patient in 1963) and A549 cells (adenocarcinoma human alveolar basal epithelial cells).
(§2) Test compounds were dissolved in 100% DMSO and serially diluted into a white 384-well microtiter cell culture plate (PerkinElmer #60076780 in case of Raji assay; PDL-coated plates Greiner #781945 in case of A549 assay), 5000 Raji cells (ATCC #CC86) or 5000 A549 cells (ATCC #CCL-185) in Assay Complete Cell Plating reagent 30 (DiscoverX 93-0563R30B) were added per well. The assay plate was incubated for 48 h at 37° C., 95% humidity and 5% CO2. 15000 reporter cells (Jurkat PathHunter SIRPaV1, DiscoverX #93-1135C19) were added to each well, and the plate was incubated for 5 h at 37° C., 95% humidity and 5% CO2. Bioassay reagent 1 of the PathHunter Bioassay detection kit (DiscoverX 93-0001) was added to each well of the plate using a multichannel pipette followed by a 15 min incubation at room temperature. Afterwards bioassay reagent 2 was added followed by 60 min incubation at room temperature (incubation in the dark). The analysis of the data was performed using the luminescence signal generated by beta-galactosidase in the PathHunter reporter cell line. The luminescence measurement was done using a Pherastar Multi-Mode Reader. Dose-response curves & IC50 data were calculated with 4-parameter sigmoidal dose response formula.
Usually IC50 stands for the concentration that inhibits the measured activity by half. For the compound `Cn1cnnc1C1CCN(c2c(-c3cnc4nn(C(C)(C)C)cc4c3)ccc(C(F)(F)F)c2C#N)CC1` [Example 32], the IC50 was determined as 36 nM.

In the case of `COc1ccc(-c2ccc(F)nc2)c(N2CCC(c3nncn3C)CC2)c1C#N` [Example 20], the IC50 amounted to 24 nM.

In the case of `COc1ccc(-c2cnc3nn(C(C)(C)C)cc3c2)c(N2CCC(F)(c3nncn3C)CC2)c1C#N` [Example 33], the IC50 is 11 nM.

On to `Cn1cnnc1C1(F)CCN(c2c(-c3ccc(F)nc3)ccc(C(F)(F)F)c2C#N)CC1` [Example 29], for which the IC50 stood at 19 nM.

For the compound `Cn1cnnc1C1(F)CCN(c2c(C#N)cc(C(F)(F)F)cc2-c2cnc3nn(C(C)(C)C)cc3c2)CC1` [Example 1], the half-maximal inhibitory concentration (IC50) amounted to 11 nM.

As to `Cn1cnnc1C1(F)CCN(c2c(C#N)cc(Cl)cc2-c2ccc(F)nc2)CC1` [Example 18], the IC50 was 24 nM.

`Cn1cnnc1C1CCN(c2c(C#N)ccc(OC(F)F)c2-c2ccc(F)nc2)CC1` [Example 13]: the IC50 was 27 nM.

On to `COc1ccc(C#N)c(N2CCC(c3nncn3C)CC2)c1-c1ccc(F)nc1` [Example 8], for which the half-maximal inhibitory concentration (IC50) worked out at 11 nM.

System in a further data set: not listed separately
Kind of data set: Assay C: Permeability in CACO-2 cells. In kind it is in vitro ADME. The note with it: human, pH 7.2; Caco-2, permeability B−A/permeability A−B. As for the experimental part:
Caco-2 cells (1-2×10^5 cells/1 cm^2 area) are seeded on filter inserts (Costar transwell polycarbonate or PET filters, 0.4 μm pore size) and cultured (DMEM) for 10 to 25 days. Compounds are dissolved in appropriate solvent (like DMSO, 1-20 mM stock solutions). […] The transport solution (TL) is applied to the apical or basolateral donor side for measuring A-B or B-A permeability (3 filter replicates), respectively. Samples are collected at the start and end of experiment from the donor and at various time intervals for up to 2 hours also from the receiver side for concentration measurement by HPLC-MS/MS or scintillation counting. Sampled receiver volumes are replaced with fresh receiver solution.
Efflux ratio (ER)=permeability B−A/permeability A−B
Background: Caco-2 monolayers are a common model of the intestinal barrier.
Broadly, the efflux ratio is a quotient of directional permeabilities that is used to spot active efflux. In the case of `Cn1cnnc1C1CCN(c2c(-c3cnc4nn(C(C)(C)C)cc4c3)ccc(C(F)(F)F)c2C#N)CC1` [Example 32], the efflux ratio was 146.

Take `COc1ccc(-c2ccc(F)nc2)c(N2CCC(c3nncn3C)CC2)c1C#N` [Example 20]: the efflux ratio worked out at 12.5.

For the compound `COc1ccc(-c2cnc3nn(C(C)(C)C)cc3c2)c(N2CCC(F)(c3nncn3C)CC2)c1C#N` [Example 33], the efflux ratio came out at 51.9.

With `Cn1cnnc1C1(F)CCN(c2c(-c3ccc(F)nc3)ccc(C(F)(F)F)c2C#N)CC1` [Example 29], the efflux ratio was 1.4.

On to `Cn1cnnc1C1(F)CCN(c2c(C#N)cc(C(F)(F)F)cc2-c2cnc3nn(C(C)(C)C)cc3c2)CC1` [Example 1], for which the efflux ratio was determined as 3.2.

As for `Cn1cnnc1C1(F)CCN(c2c(C#N)cc(Cl)cc2-c2ccc(F)nc2)CC1` [Example 18], the efflux ratio came out at 1.

In the case of `Cn1cnnc1C1CCN(c2c(C#N)ccc(OC(F)F)c2-c2ccc(F)nc2)CC1` [Example 13], the efflux ratio is 3.6.

On to `COc1ccc(C#N)c(N2CCC(c3nncn3C)CC2)c1-c1ccc(F)nc1` [Example 8], for which the efflux ratio was found to be 4.4.

Staying with this data set, now noted: human; Caco-2, apical to basolateral, pH 7.2.
As a reminder, the Papp A→B is how fast a substance crosses the layer from the apical side. Read a low Papp A→B as poor permeation. On to `Cn1cnnc1C1CCN(c2c(-c3cnc4nn(C(C)(C)C)cc4c3)ccc(C(F)(F)F)c2C#N)CC1` [Example 32], for which the Papp A→B worked out at 0.2 ×10⁻⁶ cm/s.

Regarding `COc1ccc(-c2ccc(F)nc2)c(N2CCC(c3nncn3C)CC2)c1C#N` [Example 20], the Papp A→B turned out to be 5.6 ×10⁻⁶ cm/s.

`COc1ccc(-c2cnc3nn(C(C)(C)C)cc3c2)c(N2CCC(F)(c3nncn3C)CC2)c1C#N` [Example 33]: the Papp A→B turned out to be 0.8 ×10⁻⁶ cm/s.

With `Cn1cnnc1C1(F)CCN(c2c(-c3ccc(F)nc3)ccc(C(F)(F)F)c2C#N)CC1` [Example 29], the Papp A→B worked out at 53 ×10⁻⁶ cm/s.

For the compound `Cn1cnnc1C1(F)CCN(c2c(C#N)cc(C(F)(F)F)cc2-c2cnc3nn(C(C)(C)C)cc3c2)CC1` [Example 1], the Papp A→B came to 25 ×10⁻⁶ cm/s.

`Cn1cnnc1C1(F)CCN(c2c(C#N)cc(Cl)cc2-c2ccc(F)nc2)CC1` [Example 18] yielded a Papp A→B of 66 ×10⁻⁶ cm/s. Against the preceding compound, the Papp A→B is about 2.6-fold higher.

With `Cn1cnnc1C1CCN(c2c(C#N)ccc(OC(F)F)c2-c2ccc(F)nc2)CC1` [Example 13], the Papp A→B was 9.1 ×10⁻⁶ cm/s.

Compound `COc1ccc(C#N)c(N2CCC(c3nncn3C)CC2)c1-c1ccc(F)nc1` [Example 8] registered an apical-to-basolateral permeability (Papp A→B) of 8.5 ×10⁻⁶ cm/s.

The test system of another data set is SIRPα signalling induced by Raji cells. Kind of data set: Assay B: SIRPα signalling assay using Raji cells. It counts as cell-based. The note with it: Homo sapiens, 48 h compound incubation, Jurkat PathHunter SIRPaV1 reporter cells, read-out: Inhibition of SIRPα signalling induced by Raji cells: IC50. As for the experimental part: as §1, §2
As to `Cn1cnnc1C1CCN(c2c(-c3cnc4nn(C(C)(C)C)cc4c3)ccc(C(F)(F)F)c2C#N)CC1` [Example 32], the IC50 was found to be 70 nM.

Consider `COc1ccc(-c2ccc(F)nc2)c(N2CCC(c3nncn3C)CC2)c1C#N` [Example 20], for which the IC50 was determined as 102 nM.

On to `COc1ccc(-c2cnc3nn(C(C)(C)C)cc3c2)c(N2CCC(F)(c3nncn3C)CC2)c1C#N` [Example 33], for which the IC50 came out at 20 nM.

Consider `Cn1cnnc1C1(F)CCN(c2c(-c3ccc(F)nc3)ccc(C(F)(F)F)c2C#N)CC1` [Example 29], for which the IC50 came to 78 nM.

In the case of `Cn1cnnc1C1(F)CCN(c2c(C#N)cc(C(F)(F)F)cc2-c2cnc3nn(C(C)(C)C)cc3c2)CC1` [Example 1], the IC50 was found to be 5 nM.

In the case of `Cn1cnnc1C1(F)CCN(c2c(C#N)cc(Cl)cc2-c2ccc(F)nc2)CC1` [Example 18], the IC50 is 36 nM.

Take `Cn1cnnc1C1CCN(c2c(C#N)ccc(OC(F)F)c2-c2ccc(F)nc2)CC1` [Example 13]: the IC50 turned out to be 96 nM.

As to `COc1ccc(C#N)c(N2CCC(c3nncn3C)CC2)c1-c1ccc(F)nc1` [Example 8], the IC50 came to 44 nM.

For the next data set, the target named is T1, QPCTL (Homo sapiens, UniProt Q9NXS2).
T1 construct: made in house
T1 sequence (Q9NXS2 whole entry): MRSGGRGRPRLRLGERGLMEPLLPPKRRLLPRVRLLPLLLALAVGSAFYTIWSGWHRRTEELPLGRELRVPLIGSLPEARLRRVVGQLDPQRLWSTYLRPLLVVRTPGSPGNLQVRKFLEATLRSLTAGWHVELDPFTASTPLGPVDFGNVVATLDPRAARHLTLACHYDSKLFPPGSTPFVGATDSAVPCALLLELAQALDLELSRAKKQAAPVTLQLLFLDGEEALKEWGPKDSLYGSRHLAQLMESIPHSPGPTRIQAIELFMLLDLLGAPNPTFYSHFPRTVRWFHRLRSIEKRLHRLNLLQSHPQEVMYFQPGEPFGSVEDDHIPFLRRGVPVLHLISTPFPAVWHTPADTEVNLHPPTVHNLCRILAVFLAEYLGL
The data set can be described thus: Assay A: biochemical QPCTL activity assay (MALDI-TOF MS, CD47 peptide substrate). The note with it: 0.5 nM enzyme, 10 μM CD47 peptide substrate; read-out: Inhibition of QPCTL: IC50. The procedure:
(§3) QPCT or QPCTL dependent conversion of N-terminal glutamine to pyroglutamate of CD47 was monitored via MALDI-TOF MS. Test compounds were dissolved in 100% DMSO and serially diluted into clear 1,536-well microtiter plates. Enzymatic reactions were set up in assay buffer containing 20 mM Tris pH 7.5, 0.1 mM TCEP, 0.01% BSA, and 0.001% Tween20. […] The plates were incubated for 10 min in a humidified incubator at 24° C. Subsequently, 2.5 µL of CD47 peptide substrate surrogate (^19[…]^33) was added to each well (final concentration: 10 μM for QPCTL/20 μM for QPCT). The plates were mixed for 30 sec at 1,000 rpm and subsequently incubated for 40 min in a humidified incubator at 24° C. […] The plates were sealed with an adhesive foil, mixed for 30 s at 1,000 rpm and stored at room temperature until preparation of the MALDI target plates. MALDI target plates were prepared as described previously. […] QPCT or QPCTL activity was monitored by calculating the ratio between product and internal standard signals followed by normalization to high (100% activity) and low (0% activity) controls. Determination of compound potencies was obtained by fitting the dose-response data to a four-parameter logistical equation.
Regarding `Cn1cnnc1C1CCN(c2c(-c3cnc4nn(C(C)(C)C)cc4c3)ccc(C(F)(F)F)c2C#N)CC1` [Example 32], the IC50 was found to be 2 nM.

`COc1ccc(-c2ccc(F)nc2)c(N2CCC(c3nncn3C)CC2)c1C#N` [Example 20]: the IC50 was found to be 1 nM.

In the case of `COc1ccc(-c2cnc3nn(C(C)(C)C)cc3c2)c(N2CCC(F)(c3nncn3C)CC2)c1C#N` [Example 33], the IC50 is 1 nM.

On to `Cn1cnnc1C1(F)CCN(c2c(-c3ccc(F)nc3)ccc(C(F)(F)F)c2C#N)CC1` [Example 29], for which the half-inhibitory concentration (IC50) came out at 1 nM.

For `Cn1cnnc1C1(F)CCN(c2c(C#N)cc(C(F)(F)F)cc2-c2cnc3nn(C(C)(C)C)cc3c2)CC1` [Example 1], the IC50 was determined as 1 nM.

For the compound `Cn1cnnc1C1(F)CCN(c2c(C#N)cc(Cl)cc2-c2ccc(F)nc2)CC1` [Example 18], the IC50 amounted to 2 nM.

On to `Cn1cnnc1C1CCN(c2c(C#N)ccc(OC(F)F)c2-c2ccc(F)nc2)CC1` [Example 13], for which the IC50 is 2 nM.

Regarding `COc1ccc(C#N)c(N2CCC(c3nncn3C)CC2)c1-c1ccc(F)nc1` [Example 8], the IC50 came to 1 nM.

A further data set concerns the target T2, QPCT (Homo sapiens, UniProt Q16769).
T2 construct: purchased Origine (so in the source)
The data set can be described thus: Assay A: biochemical QPCT activity assay (MALDI-TOF MS, CD47 peptide substrate). The conditions noted are these: 0.5 nM enzyme, 20 μM CD47 peptide substrate; read-out: Inhibition of QPCT: IC50. The procedure:
as §3
Turning to `Cn1cnnc1C1CCN(c2c(-c3cnc4nn(C(C)(C)C)cc4c3)ccc(C(F)(F)F)c2C#N)CC1` [Example 32], the IC50 came out at 2 nM.

For `COc1ccc(-c2ccc(F)nc2)c(N2CCC(c3nncn3C)CC2)c1C#N` [Example 20], the IC50 stood at 4 nM.

Regarding `COc1ccc(-c2cnc3nn(C(C)(C)C)cc3c2)c(N2CCC(F)(c3nncn3C)CC2)c1C#N` [Example 33], the IC50 turned out to be 1 nM.

In the case of `Cn1cnnc1C1(F)CCN(c2c(-c3ccc(F)nc3)ccc(C(F)(F)F)c2C#N)CC1` [Example 29], the IC50 is 2 nM.

As for `Cn1cnnc1C1(F)CCN(c2c(C#N)cc(C(F)(F)F)cc2-c2cnc3nn(C(C)(C)C)cc3c2)CC1` [Example 1], the half-maximal inhibitory concentration (IC50) was 1 nM.

Turning to `Cn1cnnc1C1(F)CCN(c2c(C#N)cc(Cl)cc2-c2ccc(F)nc2)CC1` [Example 18], the IC50 is 4 nM.

Regarding `Cn1cnnc1C1CCN(c2c(C#N)ccc(OC(F)F)c2-c2ccc(F)nc2)CC1` [Example 13], the IC50 stood at 2 nM.

`COc1ccc(C#N)c(N2CCC(c3nncn3C)CC2)c1-c1ccc(F)nc1` [Example 8]: the IC50 came out at 3 nM.
